Measured values as given in PubChem BioAssay (NCI).
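Values below derive from 48-hour exposures of cells grown in 96-well plates, with endpoints linearly interpolated between the two concentrations bracketing the appropriate inhibition level. GI50 is the concentration that inhibits growth by half. TGI marks complete inhibition of growth.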

Assays:
Test in all cases: NCI anticancer screen, dose series, 48 h
A549 NSCLC = tested on: A549 NSCLC
HCC-2998 colon = tested on: HCC-2998 colon
HL-60(TB) leukemia = tested on: HL-60(TB) leukemia
OVCAR-5 ovarian = tested on: OVCAR-5 ovarian
RPMI-8226 leukemia = tested on: RPMI-8226 leukemia
SK-MEL-28 melanoma = tested on: SK-MEL-28 melanoma
SK-MEL-5 melanoma = tested on: SK-MEL-5 melanoma
TK-10 renal = tested on: TK-10 renal
CAKI-1 renal = tested on: CAKI-1 renal
RXF 393 renal = tested on: RXF 393 renal

| SMILES | GI50 (A549 NSCLC) | TGI (A549 NSCLC) | GI50 (HCC-2998 colon) | TGI (HCC-2998 colon) | GI50 (HL-60(TB) leukemia) | TGI (HL-60(TB) leukemia) | GI50 (OVCAR-5 ovarian) | TGI (OVCAR-5 ovarian) | GI50 (RPMI-8226 leukemia) | TGI (RPMI-8226 leukemia) | GI50 (SK-MEL-28 melanoma) | TGI (SK-MEL-28 melanoma) | GI50 (SK-MEL-5 melanoma) | TGI (SK-MEL-5 melanoma) | GI50 (TK-10 renal) | TGI (TK-10 renal) | GI50 (CAKI-1 renal) | TGI (CAKI-1 renal) | GI50 (RXF 393 renal) | TGI (RXF 393 renal) |
| --- | --- | --- | --- | --- | --- | --- | --- | --- | --- | --- | --- | --- | --- | --- | --- | --- | --- | --- | --- | --- |
| CC(C)(C)c1nc(-c2cccc(NS(=O)(=O)c3c(F)cccc3F)c2F)c(-c2ccnc(N)n2)s1 | 26.1 µM | > 100 µM | 24.1 µM | 86.7 µM | 4.68 µM | 37.4 µM | 12.3 µM | > 100 µM | 24.1 µM | 97 µM | < 0.01 µM | > 100 µM | 0.0129 µM | > 100 µM | 31.8 µM | > 100 µM | – | – | – | – |
| COc1cc(-c2cc3ncccc3c3[nH]c(=O)c4cccnc4c23)cc(OC)c1OC | 1.28 µM | > 100 µM | 2.08 µM | > 100 µM | – | – | > 100 µM | > 100 µM | 1.3 µM | 47.5 µM | 0.957 µM | > 100 µM | 0.51 µM | 3.17 µM | 17.2 µM | > 100 µM | 0.663 µM | > 100 µM | 0.818 µM | 26.2 µM |
| O=c1[nH]c(=O)n(C2CC(O)C(CO)O2)cc1COCC(F)(F)F (stereo not drawn) | – | > 100 µM | – | > 100 µM | – | > 100 µM | – | > 100 µM | – | > 100 µM | – | – | – | > 100 µM | – | > 100 µM | – | > 100 µM | – | > 100 µM |
| Nc1nc2c(ccc3ccccc32)s1 | > 100 µM | > 100 µM | 50.6 µM | > 100 µM | – | – | > 100 µM | > 100 µM | 43.8 µM | > 100 µM | > 100 µM | > 100 µM | 72.7 µM | > 100 µM | 35.2 µM | > 100 µM | 26.7 µM | 67.5 µM | 37.2 µM | > 100 µM |
| O=C(NC(=O)c1cn(CCN2CCN(C(=O)NCCCCCCNC(=O)N3CCN(CCn4cc(C(=O)NC(=O)OCc5ccccc5)c(=O)[nH]c4=O)CC3)CC2)c(=O)[nH]c1=O)OCc1ccccc1 | – | > 100 µM | – | – | – | > 100 µM | – | > 100 µM | – | > 100 µM | – | > 100 µM | – | > 100 µM | – | > 100 µM | – | > 100 µM | – | > 100 µM |
| COc1cc(C2c3cc4c(cc3[C@@H](N(C)c3ccc(N(C)C)cc3)C3COC(=O)C23)OCO4)cc(OC)c1O (stereo partly drawn) | – | – | – | 20.8 µM | – | 7.84 µM | – | 31.3 µM | – | > 100 µM | – | 27.3 µM | – | 13.7 µM | – | 33.1 µM | – | 25 µM | – | – |
| O=C(O)Cn1ccc2ccccc21 | > 100 µM | > 100 µM | > 100 µM | > 100 µM | – | – | > 100 µM | > 100 µM | > 100 µM | > 100 µM | > 100 µM | > 100 µM | > 100 µM | > 100 µM | – | – | > 100 µM | > 100 µM | > 100 µM | > 100 µM |
| Cc1cc2c(cc1CO)N1Cc3cc(C)c(CO)cc3N(C2)C1 | – | > 100 µM | – | > 100 µM | – | > 100 µM | – | – | – | > 100 µM | – | > 100 µM | – | > 100 µM | – | > 100 µM | – | – | – | > 100 µM |
| c1ccc(C2CC(c3ccc4ccccc4c3)=Nc3ccccc3S2)cc1 (stereo not drawn) | – | 38.8 µM | – | 24.8 µM | – | 55.9 µM | – | 37.6 µM | – | > 100 µM | – | 33.1 µM | – | 35.3 µM | – | 37.8 µM | – | – | – | 33.4 µM |
| CCC(=O)C(C(=O)CC)c1c(OC(=O)c2ccccc2)ccc(O)c1C(=O)OC | – | > 100 µM | – | – | – | > 100 µM | – | > 100 µM | – | > 100 µM | – | > 100 µM | – | > 100 µM | – | > 100 µM | – | > 100 µM | – | > 100 µM |
| COc1ccc(-c2n[nH]nc2-c2cc(OC)c3c(c2)OCO3)cc1 | 0.0239 µM | > 100 µM | 0.069 µM | 2.4 µM | 0.0252 µM | 0.336 µM | 0.0665 µM | > 100 µM | 0.0319 µM | 32.5 µM | 0.0444 µM | > 89.7 µM | 0.0267 µM | 0.899 µM | 15.7 µM | > 100 µM | 0.0237 µM | 58.5 µM | – | – |
| CCCCN1C(=O)/C(=c2\sc3n(c2=O)C2C(NN=3)N(CC)C(=O)N2CC)c2ccccc21 (stereo not drawn) | – | – | 1.38 µM | 3.81 µM | 1.05 µM | 3.46 µM | – | – | – | – | – | – | – | – | 1.82 µM | 6.26 µM | – | – | 0.365 µM | 2.23 µM |
| CCN(CC)c1ccc2nc3ccc(N=Nc4ccc(O)cc4)cc3[n+](-c3ccccc3)c2c1 | 4.85 µM | > 100 µM | 4.51 µM | 16.4 µM | – | – | 20.8 µM | 73.7 µM | 3.85 µM | > 100 µM | 5.88 µM | 21.5 µM | 2.92 µM | 12.2 µM | 3.15 µM | > 100 µM | 10.1 µM | > 100 µM | 10.4 µM | 24.8 µM |
| c1cc[c]([Sn]([O]c2cccc3cccnc23)([O]c2cccc3cccnc23)[c]2ccccc2)cc1 | – | – | 2.48 µM | 9.62 µM | 0.144 µM | 0.351 µM | – | – | – | – | – | – | 0.245 µM | 0.593 µM | 1.31 µM | 2.73 µM | 0.179 µM | 0.383 µM | – | – |
| CCN(CC)c1ccc(N=Nc2ccc(-c3nc4cccn(C)c-4n3)cc2)cc1 | – | 25.6 µM | – | – | – | 4.79 µM | – | 26.3 µM | – | 7.07 µM | – | – | – | 16.8 µM | – | 68.2 µM | – | 41.5 µM | – | 11.8 µM |
| COc1cc(-c2nccc3cc4c(cc23)OCO4)cc(OC)c1OC | 7.37 µM | > 100 µM | 8.68 µM | 51.7 µM | – | – | 24.9 µM | > 100 µM | 4.98 µM | > 100 µM | 16.6 µM | > 100 µM | 3.16 µM | > 100 µM | 5.64 µM | > 100 µM | 2.52 µM | 10.5 µM | 3.4 µM | 18.3 µM |
| CCCCCCCCCCOC(=O)c1cc[n+](C)cc1 | – | 31 µM | – | – | – | 35.4 µM | – | 26.8 µM | – | 38.2 µM | – | 31.3 µM | – | 33.6 µM | – | 31.8 µM | – | 30.4 µM | – | 34.3 µM |
| Cc1cccc(Nc2cc(Cl)nc(SCC(=O)O)n2)c1C | – | > 100 µM | – | – | – | > 100 µM | – | > 100 µM | – | > 100 µM | – | > 100 µM | – | > 100 µM | – | > 100 µM | – | > 100 µM | – | > 100 µM |
